Laboratory results reported in US4038222A, “Untriakontapeptide with opiate activity” (Hoffman-La Roche Inc., priority 1976, dated 1977).
Entries after “also recorded” stand apart in the source; their conditions may differ. No end group written: not given here.

Legend:
[1] = system: opiate receptor, guinea pig brain membranes; test: Opiate agonist activity by receptor binding assay (method of Simon et al.), inhibition of stereospecific binding; settings: for Response: percentage of inhibition of stereospecific binding: mean ± standard error from 4 determinations
Experimental: The opiate agonist activity of natural beta-endophine was determined by the method of Simon et al., Proc. Nat. Acad. Sci. 70, 1947 (1973) using guinea pig brain membranes. The results obtained are summarized below in Table 4:
^a Percentage of inhibition of stereospecific binding.
Mean ± standard error from 4 determinations.

[2] = pentapeptide isolated from pig brains; cited from earlier work
[3] = system: rabbit fat cells; test: Lipolytic activity in rabbit fat cells (procedure of Li et al.), glycerol production; type: cell-based; settings: for Response: glycerol production: triplicate, mean ± standard error
Excerpt: The lypolytic activity of natural beta-endorphin was compared to the activity of ovine beta-lipotropin hormone in rabbit fat cells using the procedure of Li et al., Arch. Biochem. Biophys. 169, 669 (1975).
^a Micromole of glycerol production per gram of cells per hour.
Determinations in triplicate. Values in mean ± standard error.

Oc1ccc2c3c1O[C@H]1[C@@H](O)C=C[C@H]4[C@@H](C2)NCC[C@@]341 [Normorphine, reference compound]
Response: percentage of inhibition of stereospecific binding ([1]; dose 0.7 x 10^-7 M): 28 ± 0.8% | Response: percentage of inhibition of stereospecific binding ([1]; dose 7.0 x 10^-7 M): 70 ± 0.9%

H-Tyr-Gly-Gly-Phe-Met-OH- (H-YGGFM-OH) [pentapeptide isolated from pig brains by Hughes et al]
Opiate agonist activity (in words) [2]: exhibits opiate agonist activity

YGGFMTSEKSQTPLVTLFKNAIIKNAHKKGQ [beta-endorphin]
Lipolytic activity in comparison to the complete hormone (in words) ([3]; compared with beta-lipotropin hormone): very low | Response: glycerol production ([3]; dose 1.1 (unit not given)): 0.66 ± 0.28 Micromole of glycerol producti | Response: glycerol production ([3]; dose 10.0 (unit not given)): 1.42 ± 0.37 Micromole of glycerol producti | Opiate agonist activity (in words) [1]: potent opiate agonist activity; also recorded: significant opiate agonist activity | Relative potency to normorphine ([1]; 95% confidence limit of 300-392, λ = 0.044): 342% | Response: percentage of inhibition of stereospecific binding ([1]; dose 1.0 x 10^-7 M): 60 ± 0.7% | Response: percentage of inhibition of stereospecific binding ([1]; dose 10.0 x 10^-7 M): 83 ± 0.2% | Potency relative to normorphine on a molar basis ([1]; molar basis): 3.42 times
